Source: ChEMBL document CHEMBL3885881, “DrugMatrix”

Species: Rattus norvegicus
Experiment: DrugMatrix - Regimen: Daily Repeat
Type: toxicity, organism-based, Sprague-Dawley
Design: regimen Daily Repeat, gender Male, age 6-8 weeks
Settings: in vivo, po, route oral GAVAGE, vehicle 100 % WATER; for BASOPHIL / EOSINOPHIL / ERYTHROCYTE COUNT / HEMATOCRIT / HEMOGLOBIN / LEUKOCYTE COUNT / LYMPHOCYTE / MEAN CORPUSCULAR HEMOGLOBIN / MEAN CORPUSCULAR HEMOGLOBIN CONCENTRATION / MEAN CORPUSCULAR VOLUME / MONOCYTE / NEUTROPHIL / PLATELET COUNT: tissue Blood; for ALANINE AMINOTRANSFERASE / ALBUMIN / ALKALINE PHOSPHATASE / ASPARTATE AMINOTRANSFERASE / BLOOD UREA NITROGEN / CHLORIDE / CHOLESTEROL / CREATINE PHOSPHOKINASE / CREATININE / GLUCOSE / PHOSPHORUS / POTASSIUM / SODIUM / TOTAL BILIRUBIN / TOTAL PROTEIN: tissue Plasma
[1] = 0 mg/kg, 72 h, dose level Control, time 3 day
[2] = 0 mg/kg, 120 h, dose level Control, time 5 day
[3] = 10 mg/kg, 72 h, dose level Low, time 3 day
[4] = 10 mg/kg, 120 h, dose level Low, time 5 day
[5] = 1500 mg/kg, 72 h, dose level High, time 3 day
[6] = 1500 mg/kg, 120 h, dose level High, time 5 day

SMILES: O=C(O)c1cc(=O)c2c(OCC(O)COc3cccc4oc(C(=O)O)cc(=O)c34)cccc2o1 [CROMOLYN]
- BASOPHIL [1]: 0%
- EOSINOPHIL [1]: 0.33%
- ERYTHROCYTE COUNT [1]: 5.88 x10E6/uL
- HEMATOCRIT [1]: 36.47%
- HEMOGLOBIN [1]: 14.2 G/DL
- LEUKOCYTE COUNT [1]: 9.28 x10E3/uL
- LYMPHOCYTE [1]: 82.33%
- MEAN CORPUSCULAR HEMOGLOBIN [1]: 24.2 pg
- MEAN CORPUSCULAR HEMOGLOBIN CONCENTRATION [1]: 38.97 G/DL
- MEAN CORPUSCULAR VOLUME [1]: 62.12 fL
- MONOCYTE [1]: 2.33%
- NEUTROPHIL [1]: 15%
- PLATELET COUNT [1]: 1114 x10E3/uL
- ALANINE AMINOTRANSFERASE [1]: 41.17 u/L
- ALBUMIN [1]: 3.95 G/DL
- ALKALINE PHOSPHATASE [1]: 382.5 u/L
- ASPARTATE AMINOTRANSFERASE [1]: 67.33 u/L
- BLOOD UREA NITROGEN [1]: 15.5 mg/dL
- CHLORIDE [1]: 106.33 MEQ/L
- CHOLESTEROL [1]: 77.67 mg/dL
- CREATINE PHOSPHOKINASE [1]: 123.33 u/L
- CREATININE [1]: 0.62 mg/dL
- GLUCOSE [1]: 185.67 mg/dL
- PHOSPHORUS [1]: 10.2 mg/dL
- POTASSIUM [1]: 6.72 MEQ/L
- SODIUM [1]: 149.67 MEQ/L
- TOTAL BILIRUBIN [1]: 0.97 mg/dL
- TOTAL PROTEIN [1]: 6.58 G/DL
- BASOPHIL [2]: 0%
- EOSINOPHIL [2]: 0%
- ERYTHROCYTE COUNT [2]: 5.99 x10E6/uL
- HEMATOCRIT [2]: 36.88%
- HEMOGLOBIN [2]: 14.77 G/DL
- LEUKOCYTE COUNT [2]: 11.35 x10E3/uL
- LYMPHOCYTE [2]: 85.5%
- MEAN CORPUSCULAR HEMOGLOBIN [2]: 24.7 pg
- MEAN CORPUSCULAR HEMOGLOBIN CONCENTRATION [2]: 40.07 G/DL
- MEAN CORPUSCULAR VOLUME [2]: 61.58 fL
- MONOCYTE [2]: 1.83%
- NEUTROPHIL [2]: 12.67%
- PLATELET COUNT [2]: 979.67 x10E3/uL
- ALANINE AMINOTRANSFERASE [2]: 36.5 u/L
- ALBUMIN [2]: 3.63 G/DL
- ALKALINE PHOSPHATASE [2]: 303.5 u/L
- ASPARTATE AMINOTRANSFERASE [2]: 61 u/L
- BLOOD UREA NITROGEN [2]: 16.5 mg/dL
- CHLORIDE [2]: 106.17 MEQ/L
- CHOLESTEROL [2]: 60.5 mg/dL
- CREATINE PHOSPHOKINASE [2]: 154.83 u/L
- CREATININE [2]: 0.6 mg/dL
- GLUCOSE [2]: 201 mg/dL
- PHOSPHORUS [2]: 10.1 mg/dL
- POTASSIUM [2]: 6.85 MEQ/L
- SODIUM [2]: 148.17 MEQ/L
- TOTAL BILIRUBIN [2]: 0.58 mg/dL
- TOTAL PROTEIN [2]: 5.9 G/DL
- BASOPHIL [3]: 0%
- EOSINOPHIL [3]: 0%
- ERYTHROCYTE COUNT [3]: 5.62 x10E6/uL
- HEMATOCRIT [3]: 34.93%
- HEMOGLOBIN [3]: 13.6 G/DL
- LEUKOCYTE COUNT [3]: 10.7 x10E3/uL
- LYMPHOCYTE [3]: 79%
- MEAN CORPUSCULAR HEMOGLOBIN [3]: 24.23 pg
- MEAN CORPUSCULAR HEMOGLOBIN CONCENTRATION [3]: 38.93 G/DL
- MEAN CORPUSCULAR VOLUME [3]: 62.2 fL
- MONOCYTE [3]: 2.33%
- NEUTROPHIL [3]: 18.67%
- PLATELET COUNT [3]: 1007 x10E3/uL
- ALANINE AMINOTRANSFERASE [3]: 38.67 u/L
- ALBUMIN [3]: 3.87 G/DL
- ALKALINE PHOSPHATASE [3]: 381.33 u/L
- ASPARTATE AMINOTRANSFERASE [3]: 60.67 u/L
- BLOOD UREA NITROGEN [3]: 13 mg/dL
- CHLORIDE [3]: 107.33 MEQ/L
- CHOLESTEROL [3]: 71.67 mg/dL
- CREATINE PHOSPHOKINASE [3]: 119.67 u/L
- CREATININE [3]: 0.6 mg/dL
- GLUCOSE [3]: 182 mg/dL
- PHOSPHORUS [3]: 10.4 mg/dL
- POTASSIUM [3]: 6.6 MEQ/L
- SODIUM [3]: 150.33 MEQ/L
- TOTAL BILIRUBIN [3]: 0.8 mg/dL
- TOTAL PROTEIN [3]: 6.33 G/DL
- BASOPHIL [4]: 0%
- EOSINOPHIL [4]: 0.33%
- ERYTHROCYTE COUNT [4]: 5.82 x10E6/uL
- HEMATOCRIT [4]: 35.37%
- HEMOGLOBIN [4]: 14.43 G/DL
- LEUKOCYTE COUNT [4]: 10.43 x10E3/uL
- LYMPHOCYTE [4]: 85%
- MEAN CORPUSCULAR HEMOGLOBIN [4]: 24.83 pg
- MEAN CORPUSCULAR HEMOGLOBIN CONCENTRATION [4]: 40.83 G/DL
- MEAN CORPUSCULAR VOLUME [4]: 60.73 fL
- MONOCYTE [4]: 2.33%
- NEUTROPHIL [4]: 12.33%
- PLATELET COUNT [4]: 932 x10E3/uL
- ALANINE AMINOTRANSFERASE [4]: 38 u/L
- ALBUMIN [4]: 3.73 G/DL
- ALKALINE PHOSPHATASE [4]: 274 u/L
- ASPARTATE AMINOTRANSFERASE [4]: 62.33 u/L
- BLOOD UREA NITROGEN [4]: 13.33 mg/dL
- CHLORIDE [4]: 109 MEQ/L
- CHOLESTEROL [4]: 60.33 mg/dL
- CREATINE PHOSPHOKINASE [4]: 101.67 u/L
- CREATININE [4]: 0.73 mg/dL
- GLUCOSE [4]: 167.33 mg/dL
- PHOSPHORUS [4]: 9.73 mg/dL
- POTASSIUM [4]: 6.7 MEQ/L
- SODIUM [4]: 151.33 MEQ/L
- TOTAL BILIRUBIN [4]: 0.67 mg/dL
- TOTAL PROTEIN [4]: 5.87 G/DL
- BASOPHIL [5]: 0%
- EOSINOPHIL [5]: 0.33%
- ERYTHROCYTE COUNT [5]: 5.31 x10E6/uL
- HEMATOCRIT [5]: 33.07%
- HEMOGLOBIN [5]: 13.3 G/DL
- LEUKOCYTE COUNT [5]: 10.3 x10E3/uL
- LYMPHOCYTE [5]: 79.67%
- MEAN CORPUSCULAR HEMOGLOBIN [5]: 25.1 pg
- MEAN CORPUSCULAR HEMOGLOBIN CONCENTRATION [5]: 40.3 G/DL
- MEAN CORPUSCULAR VOLUME [5]: 62.23 fL
- MONOCYTE [5]: 1%
- NEUTROPHIL [5]: 18.67%
- PLATELET COUNT [5]: 969.67 x10E3/uL
- ALANINE AMINOTRANSFERASE [5]: 36 u/L
- ALBUMIN [5]: 3.9 G/DL
- ALKALINE PHOSPHATASE [5]: 383.5 u/L
- ASPARTATE AMINOTRANSFERASE [5]: 60 u/L
- BLOOD UREA NITROGEN [5]: 13 mg/dL
- CHLORIDE [5]: 106 MEQ/L
- CHOLESTEROL [5]: 72 mg/dL
- CREATINE PHOSPHOKINASE [5]: 122 u/L
- CREATININE [5]: 0.5 mg/dL
- GLUCOSE [5]: 179 mg/dL
- PHOSPHORUS [5]: 9.8 mg/dL
- POTASSIUM [5]: 6.7 MEQ/L
- SODIUM [5]: 150 MEQ/L
- TOTAL BILIRUBIN [5]: 0.5 mg/dL
- TOTAL PROTEIN [5]: 6.25 G/DL
- BASOPHIL [6]: 0%
- EOSINOPHIL [6]: 0%
- ERYTHROCYTE COUNT [6]: 6.38 x10E6/uL
- HEMATOCRIT [6]: 37.77%
- HEMOGLOBIN [6]: 14.93 G/DL
- LEUKOCYTE COUNT [6]: 13.03 x10E3/uL
- LYMPHOCYTE [6]: 83.33%
- MEAN CORPUSCULAR HEMOGLOBIN [6]: 23.43 pg
- MEAN CORPUSCULAR HEMOGLOBIN CONCENTRATION [6]: 39.57 G/DL
- MEAN CORPUSCULAR VOLUME [6]: 59.27 fL
- MONOCYTE [6]: 0.67%
- NEUTROPHIL [6]: 16%
- PLATELET COUNT [6]: 1070.67 x10E3/uL
- ALANINE AMINOTRANSFERASE [6]: 36.33 u/L
- ALBUMIN [6]: 3.77 G/DL
- ALKALINE PHOSPHATASE [6]: 352 u/L
- ASPARTATE AMINOTRANSFERASE [6]: 63 u/L
- BLOOD UREA NITROGEN [6]: 15.33 mg/dL
- CHLORIDE [6]: 106 MEQ/L
- CHOLESTEROL [6]: 50.67 mg/dL
- CREATINE PHOSPHOKINASE [6]: 125.33 u/L
- CREATININE [6]: 0.63 mg/dL
- GLUCOSE [6]: 177.67 mg/dL
- PHOSPHORUS [6]: 10.5 mg/dL
- POTASSIUM [6]: 7.1 MEQ/L
- SODIUM [6]: 150 MEQ/L
- TOTAL BILIRUBIN [6]: 0.57 mg/dL
- TOTAL PROTEIN [6]: 6.13 G/DL
